Assay results: US12252524B2, “GIP/GLP1 co-agonist compounds” (Eli Lilly and Company, priority 2018, dated 2025)
Numbered stars: 1 amine (or outer) side, 2 acyl side, 3 side chain; on linkers, the order of the positions; unused ones are H or OH. Square brackets hold non-standard residues; d marks the D form. Side chains are listed from the residue outwards. Peptide text beside a SMILES is read from it. * marks the point of attachment. C20 diacid = O=C(O)CCCCCCCCCCCCCCCCCCC(=O)*; αMePhe(2-F) = C[C@](N)(Cc1ccccc1F)C(=O)O; C16 diacid = O=C(O)CCCCCCCCCCCCCCC(=O)*; γGlu = O=C(O)[C@H](CCC(=O)[*:2])N[*:1]; αMeL = CC(C)C[C@](C)(N)C(=O)O; Orn = NCCC[C@H](N)C(=O)O; Dab = NCC[C@H](N)C(=O)O; Dap = NC[C@H](N)C(=O)O; AEEA = NCCOCCOCC(=O)O; Aib = CC(C)(N)C(=O)O

Legend:
[1] = target: human GLP-1 receptor (GLP-1R) (Homo sapiens, UniProt P43220); experiment: cAMP pharmacological functional assay in presence of casein, hGLP-1R; format: cell-based; conditions: HEK293 cells expressing hGLP-1R, 0.1% Casein, geometric mean; read-out: hGLP1R cAMP Rel EC50 nM (SEM, n)
[2] = target: T1, gastric inhibitory peptide receptor (GIPR) (Homo sapiens, UniProt P48546); experiment: cAMP pharmacological functional assay in presence of casein, hGIPR; format: cell-based; conditions: HEK293 cells expressing hGIPR, 0.1% Casein, geometric mean; read-out: hGIPR cAMP Rel EC50 nM (SEM, n)
T1 sequence (P48546 22-466): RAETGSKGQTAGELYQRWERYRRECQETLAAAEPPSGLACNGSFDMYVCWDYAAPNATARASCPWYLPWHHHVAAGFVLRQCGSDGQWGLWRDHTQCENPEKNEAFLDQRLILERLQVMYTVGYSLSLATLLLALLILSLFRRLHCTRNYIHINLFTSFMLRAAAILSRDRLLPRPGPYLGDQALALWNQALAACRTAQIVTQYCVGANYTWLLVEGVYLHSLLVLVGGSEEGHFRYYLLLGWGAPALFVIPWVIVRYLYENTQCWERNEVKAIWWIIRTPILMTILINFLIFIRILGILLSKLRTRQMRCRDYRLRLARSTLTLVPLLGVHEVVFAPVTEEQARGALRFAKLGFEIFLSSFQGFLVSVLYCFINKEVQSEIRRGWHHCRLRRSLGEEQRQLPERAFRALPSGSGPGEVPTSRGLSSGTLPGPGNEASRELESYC

Chain of human GLP-1 receptor (GLP-1R) (P43220 24-463): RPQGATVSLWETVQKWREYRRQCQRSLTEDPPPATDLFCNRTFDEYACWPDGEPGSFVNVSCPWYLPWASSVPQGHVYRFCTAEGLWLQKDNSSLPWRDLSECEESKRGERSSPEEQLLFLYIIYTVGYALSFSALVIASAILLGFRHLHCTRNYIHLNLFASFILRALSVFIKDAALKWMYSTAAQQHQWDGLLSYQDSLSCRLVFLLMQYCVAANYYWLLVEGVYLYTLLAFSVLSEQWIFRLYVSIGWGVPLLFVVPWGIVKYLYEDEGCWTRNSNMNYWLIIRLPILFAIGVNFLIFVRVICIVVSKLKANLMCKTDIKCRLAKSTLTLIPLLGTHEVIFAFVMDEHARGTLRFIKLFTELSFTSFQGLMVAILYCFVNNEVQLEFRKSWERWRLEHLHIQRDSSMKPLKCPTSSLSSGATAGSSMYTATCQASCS

Row | Compound | EC50 [1] | EC50 [2]
1 | CC[C@H](C)[C@H](NC(=O)[C@H](CC(C)C)NC(=O)[C@H](Cc1ccc(O)cc1)NC(=O)[C@@H](CCC(=O)O)NC(=O)[C@@H](NC(=O)[C@H](Cc1ccccc1)NC(=O)[C@@H](NC(=O)C(C)(C)NC(=O)[C@H](CCC(N)=O)NC(=O)[C@H](C)NC(=O)[C@H](CCCCNC(=O)COCCOCCNC(=O)COCCOCCNC(=O)CC[C@H](NC(=O)CCCCCCCCCCCCCCC(=O)O)C(=O)O)NC(=O)[C@H](CCC(=O)O)NC(=O)[C@H](CC(=O)O)NC(=O)[C@H](CC(C)C)NC(=O)[C@](C)(CC(C)C)NC(=O)[C@@H](NC(=O)[C@H](CO)NC(=O)[C@H](Cc1c[nH]cn1)NC(=O)[C@H](CC(=O)O)NC(=O)[C@H](CO)NC(=O)[C@@H](NC(=O)[C@](C)(Cc1ccccc1F)NC(=O)[C@@H](NC(=O)CNC(=O)[C@H](CCC(=O)O)NC(=O)C(C)(C)NC(=O)[C@@H](N)Cc1ccc(O)cc1)[C@@H](C)O)[C@@H](C)O)[C@@H](C)CC)[C@@H](C)O)[C@@H](C)CC)C(=O)N[C@@H](CCC(=O)O)C(=O)NCC(=O)NCC(=O)N1CCC[C@H]1C(=O)N[C@@H](CO)C(=O)N[C@@H](CO)C(=O)NCC(=O)N[C@@H](C)C(=O)N1CCC[C@H]1C(=O)N1CCC[C@H]1C(=O)N1CCC[C@H]1C(=O)N[C@@H](CO)C(N)=O [Example 170] (H-Y[Aib]EGT[αMePhe(2-F)]TSDHSI[αMeL]LDEK([AEEA-AEEA-γGlu-C16 diacid])AQ[Aib]TFI[dE]YLIEGGPSSGAPPPS-NH2) | 10.4 nM | 0.569 nM
2 | CC[C@H](C)[C@H](NC(=O)[C@H](CC(C)C)NC(=O)[C@H](Cc1ccc(O)cc1)NC(=O)[C@@H](CCC(=O)O)NC(=O)[C@@H](NC(=O)[C@H](Cc1ccccc1)NC(=O)[C@@H](NC(=O)C(C)(C)NC(=O)[C@H](CCC(N)=O)NC(=O)[C@H](C)NC(=O)[C@H](CCCCNC(=O)COCCOCCNC(=O)COCCOCCNC(=O)CC[C@H](NC(=O)CCCCCCCCCCCCCCCCCCC(=O)O)C(=O)O)NC(=O)[C@H](CCCN)NC(=O)[C@H](CC(=O)O)NC(=O)[C@H](CC(C)C)NC(=O)[C@](C)(CC(C)C)NC(=O)[C@@H](NC(=O)[C@H](CO)NC(=O)[C@H](Cc1c[nH]cn1)NC(=O)[C@H](CC(=O)O)NC(=O)[C@H](CO)NC(=O)[C@@H](NC(=O)[C@](C)(Cc1ccccc1F)NC(=O)[C@@H](NC(=O)CNC(=O)[C@H](CCC(=O)O)NC(=O)C(C)(C)NC(=O)[C@@H](N)Cc1ccc(O)cc1)[C@@H](C)O)[C@@H](C)O)[C@@H](C)CC)[C@@H](C)O)[C@@H](C)CC)C(=O)N[C@@H](CCC(=O)O)C(=O)NCC(=O)NCC(=O)N1CCC[C@H]1C(=O)N[C@@H](CO)C(=O)N[C@@H](CO)C(=O)NCC(=O)N[C@@H](C)C(=O)N1CCC[C@H]1C(=O)N1CCC[C@H]1C(=O)N1CCC[C@H]1C(=O)N[C@@H](CO)C(N)=O [Example 171] (H-Y[Aib]EGT[αMePhe(2-F)]TSDHSI[αMeL]LD[Orn]K([AEEA-AEEA-γGlu-C20 diacid])AQ[Aib]TFI[dE]YLIEGGPSSGAPPPS-NH2) | 0.75 nM | 0.223 nM
3 | CC[C@H](C)[C@H](NC(=O)[C@H](CC(C)C)NC(=O)[C@H](Cc1ccc(O)cc1)NC(=O)[C@@H](CCC(=O)O)NC(=O)[C@@H](NC(=O)[C@H](Cc1ccccc1)NC(=O)[C@@H](NC(=O)C(C)(C)NC(=O)[C@H](CCC(N)=O)NC(=O)[C@H](C)NC(=O)[C@H](CCCCNC(=O)COCCOCCNC(=O)COCCOCCNC(=O)CC[C@H](NC(=O)CCCCCCCCCCCCCCCCCCC(=O)O)C(=O)O)NC(=O)[C@H](CCN)NC(=O)[C@H](CC(=O)O)NC(=O)[C@H](CC(C)C)NC(=O)[C@](C)(CC(C)C)NC(=O)[C@@H](NC(=O)[C@H](CO)NC(=O)[C@H](Cc1c[nH]cn1)NC(=O)[C@H](CC(=O)O)NC(=O)[C@H](CO)NC(=O)[C@@H](NC(=O)[C@](C)(Cc1ccccc1F)NC(=O)[C@@H](NC(=O)CNC(=O)[C@H](CCC(=O)O)NC(=O)C(C)(C)NC(=O)[C@@H](N)Cc1ccc(O)cc1)[C@@H](C)O)[C@@H](C)O)[C@@H](C)CC)[C@@H](C)O)[C@@H](C)CC)C(=O)N[C@@H](CCC(=O)O)C(=O)NCC(=O)NCC(=O)N1CCC[C@H]1C(=O)N[C@@H](CO)C(=O)N[C@@H](CO)C(=O)NCC(=O)N[C@@H](C)C(=O)N1CCC[C@H]1C(=O)N1CCC[C@H]1C(=O)N1CCC[C@H]1C(=O)N[C@@H](CO)C(N)=O [Example 172] (H-Y[Aib]EGT[αMePhe(2-F)]TSDHSI[αMeL]LD[Dab]K([AEEA-AEEA-γGlu-C20 diacid])AQ[Aib]TFI[dE]YLIEGGPSSGAPPPS-NH2; N-terminus assumed) | 1.2 nM | 1.05 nM
4 | CC[C@H](C)[C@H](NC(=O)[C@H](CC(C)C)NC(=O)[C@H](Cc1ccc(O)cc1)NC(=O)[C@@H](CCC(=O)O)NC(=O)[C@@H](NC(=O)[C@H](Cc1ccccc1)NC(=O)[C@@H](NC(=O)C(C)(C)NC(=O)[C@H](CCC(N)=O)NC(=O)[C@H](C)NC(=O)[C@H](CCCCNC(=O)COCCOCCNC(=O)COCCOCCNC(=O)CC[C@H](NC(=O)CCCCCCCCCCCCCCCCCCC(=O)O)C(=O)O)NC(=O)[C@H](CN)NC(=O)[C@H](CC(=O)O)NC(=O)[C@H](CC(C)C)NC(=O)[C@](C)(CC(C)C)NC(=O)[C@@H](NC(=O)[C@H](CO)NC(=O)[C@H](Cc1c[nH]cn1)NC(=O)[C@H](CC(=O)O)NC(=O)[C@H](CO)NC(=O)[C@@H](NC(=O)[C@](C)(Cc1ccccc1F)NC(=O)[C@@H](NC(=O)CNC(=O)[C@H](CCC(=O)O)NC(=O)C(C)(C)NC(=O)[C@@H](N)Cc1ccc(O)cc1)[C@@H](C)O)[C@@H](C)O)[C@@H](C)CC)[C@@H](C)O)[C@@H](C)CC)C(=O)N[C@@H](CCC(=O)O)C(=O)NCC(=O)NCC(=O)N1CCC[C@H]1C(=O)N[C@@H](CO)C(=O)N[C@@H](CO)C(=O)NCC(=O)N[C@@H](C)C(=O)N1CCC[C@H]1C(=O)N1CCC[C@H]1C(=O)N1CCC[C@H]1C(=O)N[C@@H](CO)C(N)=O [Example 173] (H-Y[Aib]EGT[αMePhe(2-F)]TSDHSI[αMeL]LD[Dap]K([AEEA-AEEA-γGlu-C20 diacid])AQ[Aib]TFI[dE]YLIEGGPSSGAPPPS-NH2) | 1.23 nM | 0.586 nM
5 | CC[C@H](C)[C@H](NC(=O)[C@H](CC(C)C)NC(=O)[C@H](Cc1ccc(O)cc1)NC(=O)[C@@H](CCC(=O)O)NC(=O)[C@@H](NC(=O)[C@H](Cc1ccccc1)NC(=O)[C@@H](NC(=O)C(C)(C)NC(=O)[C@H](CCC(N)=O)NC(=O)[C@H](C)NC(=O)[C@H](CCCCNC(=O)COCCOCCNC(=O)COCCOCCNC(=O)CCCCCCCCCCCCCCCCCCC(=O)O)NC(=O)[C@H](CCC(=O)O)NC(=O)[C@H](CC(=O)O)NC(=O)[C@H](CC(C)C)NC(=O)[C@](C)(CC(C)C)NC(=O)[C@@H](NC(=O)[C@H](CO)NC(=O)[C@H](Cc1c[nH]cn1)NC(=O)[C@H](CC(=O)O)NC(=O)[C@H](CO)NC(=O)[C@@H](NC(=O)[C@](C)(Cc1ccccc1F)NC(=O)[C@@H](NC(=O)CNC(=O)[C@H](CCC(=O)O)NC(=O)C(C)(C)NC(=O)[C@@H](N)Cc1ccc(O)cc1)[C@@H](C)O)[C@@H](C)O)[C@@H](C)CC)[C@@H](C)O)[C@@H](C)CC)C(=O)N[C@@H](CCC(=O)O)C(=O)NCC(=O)NCC(=O)N1CCC[C@H]1C(=O)N[C@@H](CO)C(=O)N[C@@H](CO)C(=O)NCC(=O)N[C@@H](C)C(=O)N1CCC[C@H]1C(=O)N1CCC[C@H]1C(=O)N1CCC[C@H]1C(=O)N[C@@H](CO)C(N)=O [Example 174] (H-Y[Aib]EGT[αMePhe(2-F)]TSDHSI[αMeL]LDEK([AEEA-AEEA-C20 diacid])AQ[Aib]TFI[dE]YLIEGGPSSGAPPPS-NH2) | 0.472 nM | 0.217 nM
6 | CC[C@H](C)[C@H](NC(=O)[C@H](CC(C)C)NC(=O)[C@H](Cc1ccc(O)cc1)NC(=O)[C@@H](CCC(=O)O)NC(=O)[C@@H](NC(=O)[C@H](Cc1ccccc1)NC(=O)[C@@H](NC(=O)C(C)(C)NC(=O)[C@H](CCC(N)=O)NC(=O)[C@H](C)NC(=O)[C@H](CCCCNC(=O)COCCOCCNC(=O)COCCOCCNC(=O)[C@@H](N)CCCCNC(=O)CCCCCCCCCCCCCCCCCCC(=O)O)NC(=O)[C@H](CCC(=O)O)NC(=O)[C@H](CC(=O)O)NC(=O)[C@H](CC(C)C)NC(=O)C(C)(CC(C)C)NC(=O)[C@@H](NC(=O)[C@H](CO)NC(=O)[C@H](Cc1c[nH]cn1)NC(=O)[C@H](CC(=O)O)NC(=O)[C@H](CO)NC(=O)[C@@H](NC(=O)C(C)(Cc1ccccc1F)NC(=O)[C@@H](NC(=O)CNC(=O)[C@H](CCC(=O)O)NC(=O)C(C)(C)NC(=O)[C@@H](N)Cc1ccc(O)cc1)[C@@H](C)O)[C@@H](C)O)[C@@H](C)CC)[C@@H](C)O)[C@@H](C)CC)C(=O)N[C@@H](CCC(=O)O)C(=O)NCC(=O)NCC(=O)N1CCC[C@H]1C(=O)N[C@@H](CO)C(=O)N[C@@H](CO)C(=O)NCC(=O)N[C@@H](C)C(=O)N1CCC[C@H]1C(=O)N1CCC[C@H]1C(=O)N1CCC[C@H]1C(=O)N[C@@H](CO)C(N)=O (stereo partly drawn) [Example 175] | 1.11 nM | 0.0881 nM
